Source: patent US10617689B2, “Compositions, methods and uses for the treatment of diabetes and related conditions by controlling blood glucose level” (PHARNEXT, priority 2013, dated 2020)

Legend:
[1] = Results synthesis: relative performance value over all in vitro models; details: results of all in vitro models normalized and weighed; single drugs
Source text: Table 4 gathers results that were obtained in all previously described models (see points from 1.1 to 1.5 above). A value is attributed to each candidate compound depending on its effect in the different in vitro models compared to vehicle. Results are normalized and weighed in order to generate a relative performance value for each candidate compound. A high value reflects a high potential of the compound for the normalization of glucose level and thus a significant efficacy for controlling glucose levels and/or for the treatment of diabetes or related disorders. […]

[2] = tested on: TNF-α induced insulin resistant 3T3-L1 adipocytes; experiment: Glucose uptake in TNFα induced insulin resistant 3T3-L1 differentiated adipocytes; format: cell-based; details: for glucose uptake (in words): not shown
Method: 3T3L1 fibroblasts were maintained in DMEM 4.5 g/L glucose supplemented with 5% calf serum donor, 5% new born calf serum, 100 U/mL penicillin, and 100 μg/mL streptomycin at 37° C. under a 10% CO2 atmosphere. Cells were grown on 24 well plates at a density of 2560 cells/well in 0.5 mL of growth medium (DMEM 4.5 g/L glucose supplemented with 10% FCS, 100 U/mL penicillin, and 100 μg/mL streptomycin). […] Fresh medium were replaced after two days.
Glucose uptake was measured by quantification of incorporated radiolabelled glucose, after an incubation step with 2-deoxy-D[1,2^3H] glucose for 5 min. Glucose uptake was arrested by two washing steps in ice-cold PBS 1×. Then were solubilized in 0.1N NaOH for 30 min. Cell associated radioactivity have been then counted by using a MicroBeta counter after adding 600 μL per well of scintillant (Optiphase SuperMix3).
In parallel, protein quantification was determined by a colorimetric assay derived from LOWRY method. Results are expressed in nmol of glucose incorporated/5 min/mg of protein and in % of control or basal condition (100%).

[3] = tested on: beta pancreatic INS-1 cells; experiment: Prevention of beta cells apoptosis; format: cell-based; details: 1 h pre-incubation then 24 h in apoptotic condition, drugs tested alone
Method: Drugs of the invention have been tested for their efficiency in protecting beta cells from apoptosis. Such activity could be considered of use in type 1 diabetes as well as in type 2 diabetes.
The beta pancreatic INS-1 cells have been selected for this study. The cells are cultured in complete medium, RPMI 1640 10 mM glucose supplemented with 1 mM sodium pyruvate, 50 μM 2-mercaptoethanol, 2 mM glutamine, 10 mM HEPES, 100 IU/mL penicillin, 100 μg/mL streptomycin and 10% heat-inactivated foetal calf serum (FCS), as described by Asfari et al. (23). INS-1 cells are plated (4.5×10^4 cells/well) in 96-well poly ornithine coated plates and cultured at 37° C. in a humidified atmosphere of 95% air/5% CO2. The day after, cells are pre-incubated with the tested molecules for 1 h. Then, after a medium change, cells are cultured for 24 h in a medium containing the tested molecules and glucose 30 mM, myristic acid 0.05 mM, INF 25 ng/mL, TNF 25 ng/mL and IL 5 ng/mL.
The efficacy of compounds to prevent apoptosis is then evaluated by the highly specific apoptosis detection kit from Chemicon (Ref. APT225). This procedure is based on the detection of single-stranded DNA (ssDNA) which is a specific marker of apoptotic cells (24).
Results are expressed in optical density (OD) arbitrary unit and % of reduction of the apoptosis induced by apoptotic condition. […]

[4] = tested on: Mouse muscle cells H-2 Kb; experiment: Glucose uptake in mouse muscle cells; format: cell-based; details: H-2 Kb cells; short term; 0.1 μM; vs non-treated cells
Method: For differentiation in myoblast, cells are switched to non-permissive culture conditions (37° C. in a humidified atmosphere of 95% air/5% CO2; DMEM 5.5 mM D-glucose supplemented with 2% FCS, 10% horse serum, 2% glutamine, 1% chicken embryo extract, 100 U/mL penicillin, and 100 μg/mL streptomycin).
For long term effect evaluation, the day before glucose uptake assay, cells are incubated in DMEM 5.5 mM D-glucose supplemented with 10% horse serum, 2% SVF, 1% chicken embryo extract, 2% glutamine in the presence of the tested molecules for 16 h. […]
For short term effect evaluation, 4 hours prior to the glucose test, cells are washed and incubated in a serum-free medium (DMEM) containing 5.5 mM D-glucose and the tested molecules. Then glucose uptake is measured by incubation of the cells for 5-10 min with radiolabelled 2-deoxy-D-[1,2 ^3H] glucose in Krebs-Ringer HEPES buffer (KRBH; pH 7.4) 0.1% Bovine Serum Albumine (BSA) fraction V (Sigma_A-4503). […] Cell associated radioactivity is then counted and protein quantification is determined using the colorimetric Lowry method. Glucose uptake is estimated by measuring the radioactivity incorporated to the cells by a MicroBeta counter after adding 600 μL per well of scintillant (Optiphase SuperMix3).
Protein quantification is performed by a colorimetric assay derived from Lowry method. […]

[5] = mainly from Martindale (Edition 2011) and Nathan et al. (2009); cited from earlier work
[6] = tested on: human primary myotubes derived from a diabetic patient; experiment: Glucose uptake in human diabetic myotubes primary cultures; format: cell-based; details: for enhancement of glucose uptake: pre-treatment
Method: In order to have a model that is most reflective of the diabetic pathological conditions, efficiency of drugs in enhancing glucose uptake in diabetic myotubes was tested. […] The myotubes from a diabetic patient were grown on HAM's F10-based media (Sigma, ref […]) supplemented with 15% of fetal bovine serum, 1 mM glutamine. Myoblast were seeded at 380,000 cells/well in 12-well plates. After 2 days of proliferation, the cells were placed in reduced serum conditions (2% horse serum) to induce differentiation. The myotubes were used after 5 days of differentiation. Dulbecco's modified Eagle's medium (DMEM)-based media (Gibco, ref 31053-028) supplemented with 2% heat-inactivated Horse serum, 2% Glutamax (Gibco, 35050) and washed for glucose uptake assays. Compounds were dissolved in DMSO to reach desired final concentration prior use. The differentiated myotubes were treated for 24 h with the compositions of the invention, before the assay. Before the initiation of glucose uptake, the cells were deprived of serum and glucose. […] After adding the compounds at the desired concentrations, the cells were incubated at 37° C. during 2 h30. […] A subsequent glucose and serum deprivation was performed in FIBS buffer at 37° C. for 2 hours. […] The cells were rinsed twice with 1 mL of cold PBS. The lysis was performed in 500 μL of 0.05N NaOH for 20 minutes. The cells lysates were transferred into scintillation vials for the measurement of radioactivity with a MicroBeta counter.

Structure (SMILES)	Relative performance value [1]	also measured
NCC(CC(=O)O)c1ccc(Cl)cc1 (racemic) [baclofen]	16	glucose uptake, drug used alone (in words) ([2]; alone at 3.3 nM): No significant effect
O=C[C@@H](O)[C@@H](O)[C@H](O)[C@H](O)CO [D-mannose]	18	–
CC(=O)NCCCS(=O)(=O)O [acamprosate]	15	Percentage of apoptosis reduction [3]: 49%; enhancement of glucose uptake [4]: +45%
C=CCNc1nc(NCC=C)nc(N2CCN(C(c3ccc(F)cc3)c3ccc(F)cc3)CC2)n1 [almitrine]	38	–
CN1CCCC(n2nc(Cc3ccc(Cl)cc3)c3ccccc3c2=O)CC1 (centres unmarked) [azelastine]	30	–
CCN(CC)CCOCCOC(=O)C1(c2ccccc2)CCCC1 [carbetapentane]	33	–
CN/C(=N/CCSCc1nc[nH]c1C)NC#N [cimetidine]	31	–
C[C@@H](NCCCc1cccc(C(F)(F)F)c1)c1cccc2ccccc12 [cinacalcet]	32	–
CN(C)CC[C@@H](c1ccc(Br)cc1)c1ccccn1 [dexbrompheniramine]	21	–
CCN[C@@H](C)Cc1cccc(C(F)(F)F)c1 [dexfenfluramine]	–	Side Effects [5]: Cardiovascular
CCN(CC)C(=O)N1CCN(C)CC1 [diethylcarbamazine]	32	–
Cn1c(=O)c2c(ncn2CC(O)CO)n(C)c1=O (centres unmarked) [diprophylline]	11	–
O=C1NCC2(CCN(CCc3ccccc3)CC2)O1 [fenspiride]	–	glucose uptake (in words) ([2]; 0.37 nM and 3.3 nM): improvement; enhancement of glucose uptake ([6]; 0.01 μM): +34%; enhancement of glucose uptake ([6]; 0.1 μM): +30%; enhancement of glucose uptake ([6]; 1 μM): +27%
COC1=C(OC)C(=O)C(CCCCCCCCCCO)=C(C)C1=O [idebenone]	53	–
CC(C(O)c1ccc(O)cc1)N1CCC(Cc2ccccc2)CC1 (centres unmarked) [ifenprodil]	28	glucose uptake (in words) ([2]; 10 nM and 100 nM): improvement; glucose uptake (in words) ([6]; 0.1 μM and 1 μM): improvement; enhancement of glucose uptake ([6]; 0.01 μM): +48%
C[C@@H]1CC(=O)NN=C1c1ccc(NN=C(C#N)C#N)cc1 [levosimendan]	20	–
CN(C)C(=N)N=C(N)N [metformin]	–	glucose uptake, drug used alone (in words) ([2]; metformin alone at 250 μM): No significant effect
Cc1cccc(C)c1OCC(C)N (centres unmarked) [mexiletine]	10	–
CO[C@]12C[C@@H](COC(=O)c3cncc(Br)c3)CN(C)[C@@H]1Cc1cn(C)c3cccc2c13 [nicergoline]	40	–
c1cnc(N2CCN(Cc3ccc4c(c3)OCO4)CC2)nc1 [piribedil]	24	–
C1COC(NC(C2CC2)C2CC2)=N1 [rilmenidine]	16	–
Cc1c(Cl)cccc1Nc1ccccc1C(=O)O [tolfenamic acid]	9	glucose uptake (in words) ([2]; 100 nM and 1 μM): improvement; glucose uptake, drug used alone (in words) ([2]; alone at 3.3 nM): No significant effect; enhancement of glucose uptake ([6]; 0.01 μM): +13%; enhancement of glucose uptake ([6]; 0.1 μM): +13%; enhancement of glucose uptake ([6]; 1 μM): +12%
Cc1ccc(C(=O)C(C)CN2CCCCC2)cc1 (centres unmarked) [tolperisone]	19	–
Cc1cccc(Nc2ccncc2S(=O)(=O)NC(=O)NC(C)C)c1 [torasemide]	16	glucose uptake, drug used alone (in words) ([2]; alone at 10 nM): No significant effect; enhancement of glucose uptake ([6]; 0.01 μM): +24%; enhancement of glucose uptake ([6]; 1 μM): +14%
Nc1nc(N)c2nc(-c3ccccc3)c(N)nc2n1 [triamterene]	18	glucose uptake, drug used alone (in words) ([2]; alone at 3.3 nM): No significant effect; enhancement of glucose uptake ([6]; 0.01 μM): +13%
